Data from ChEMBL document CHEMBL4665679, “Ocular Disease Therapeutics: Design and Delivery of Drugs for Diseases of the Eye” (J Med Chem, 2020).
In brackets after ≈: the same amount, converted by molar mass.

What was measured:
Complement factor D [1] = target: T1, Complement factor D (Homo sapiens, UniProt P00746); assay: Inhibition of CFD in human RBC model of anti-CD55/anti-CD59-induced paroxysmal nocturnal hemoglobinuria assessed as reduction in complement fragment C3 deposition by FACS analysis; assay type: tissue-based
T1 sequence (P00746 whole entry, the tested form may be a part): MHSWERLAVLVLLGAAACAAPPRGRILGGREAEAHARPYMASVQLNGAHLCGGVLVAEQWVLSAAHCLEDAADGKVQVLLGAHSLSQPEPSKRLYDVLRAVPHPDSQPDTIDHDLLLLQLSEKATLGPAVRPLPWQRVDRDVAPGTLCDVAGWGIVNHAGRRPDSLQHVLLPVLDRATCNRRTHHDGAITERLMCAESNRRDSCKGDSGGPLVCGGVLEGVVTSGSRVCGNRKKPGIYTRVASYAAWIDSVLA

Complement factor D [2] = target: T1, Complement factor D; assay: Inhibition of CFD in 50% human whole blood assessed as reduction in alternate complement pathway-mediated MAC formation pre-incubated for 15 mins followed by zymosan suspension addition and measured after 40 mins by ELISA; assay type: tissue-based
[3] = Reduction of intraocular pressure in human at 0.1% administered topically to the eye and measured at 4 hr post-instillation during phase 1 clinical trial by tonometry; assay type: functional
Complement factor D [4] = target: T1, Complement factor D; assay: Binding affinity to human CFD at 100 uM by WaterLOGSY NMR analysis
[5] = Solubility of compound by NMR analysis; assay type: physicochemical
Complement C5 = Complement C5 (Homo sapiens, UniProt P01031); assay: Inhibition of C5 complement protein in 2% human serum incubated for 15 mins; assay type: cell-free
Complement C5, sequence (P01031 19-673 limits assumed): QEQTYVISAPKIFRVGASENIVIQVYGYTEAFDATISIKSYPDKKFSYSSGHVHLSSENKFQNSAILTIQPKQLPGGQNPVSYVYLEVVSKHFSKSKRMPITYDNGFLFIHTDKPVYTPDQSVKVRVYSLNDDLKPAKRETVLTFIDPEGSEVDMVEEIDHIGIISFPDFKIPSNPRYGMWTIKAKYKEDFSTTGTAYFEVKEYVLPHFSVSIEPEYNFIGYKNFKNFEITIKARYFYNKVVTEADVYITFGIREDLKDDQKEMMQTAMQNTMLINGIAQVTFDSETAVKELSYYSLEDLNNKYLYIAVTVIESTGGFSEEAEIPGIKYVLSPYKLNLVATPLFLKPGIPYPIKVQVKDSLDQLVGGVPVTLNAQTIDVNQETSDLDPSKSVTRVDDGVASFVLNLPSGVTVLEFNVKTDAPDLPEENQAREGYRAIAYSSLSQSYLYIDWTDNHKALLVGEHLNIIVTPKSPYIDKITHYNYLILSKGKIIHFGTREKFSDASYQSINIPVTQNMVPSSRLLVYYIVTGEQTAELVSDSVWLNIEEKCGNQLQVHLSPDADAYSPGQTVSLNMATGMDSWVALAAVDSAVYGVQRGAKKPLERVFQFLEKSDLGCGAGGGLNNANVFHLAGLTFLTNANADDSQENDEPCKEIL
Complement C5, sequence (P01031 678-1676 limits assumed): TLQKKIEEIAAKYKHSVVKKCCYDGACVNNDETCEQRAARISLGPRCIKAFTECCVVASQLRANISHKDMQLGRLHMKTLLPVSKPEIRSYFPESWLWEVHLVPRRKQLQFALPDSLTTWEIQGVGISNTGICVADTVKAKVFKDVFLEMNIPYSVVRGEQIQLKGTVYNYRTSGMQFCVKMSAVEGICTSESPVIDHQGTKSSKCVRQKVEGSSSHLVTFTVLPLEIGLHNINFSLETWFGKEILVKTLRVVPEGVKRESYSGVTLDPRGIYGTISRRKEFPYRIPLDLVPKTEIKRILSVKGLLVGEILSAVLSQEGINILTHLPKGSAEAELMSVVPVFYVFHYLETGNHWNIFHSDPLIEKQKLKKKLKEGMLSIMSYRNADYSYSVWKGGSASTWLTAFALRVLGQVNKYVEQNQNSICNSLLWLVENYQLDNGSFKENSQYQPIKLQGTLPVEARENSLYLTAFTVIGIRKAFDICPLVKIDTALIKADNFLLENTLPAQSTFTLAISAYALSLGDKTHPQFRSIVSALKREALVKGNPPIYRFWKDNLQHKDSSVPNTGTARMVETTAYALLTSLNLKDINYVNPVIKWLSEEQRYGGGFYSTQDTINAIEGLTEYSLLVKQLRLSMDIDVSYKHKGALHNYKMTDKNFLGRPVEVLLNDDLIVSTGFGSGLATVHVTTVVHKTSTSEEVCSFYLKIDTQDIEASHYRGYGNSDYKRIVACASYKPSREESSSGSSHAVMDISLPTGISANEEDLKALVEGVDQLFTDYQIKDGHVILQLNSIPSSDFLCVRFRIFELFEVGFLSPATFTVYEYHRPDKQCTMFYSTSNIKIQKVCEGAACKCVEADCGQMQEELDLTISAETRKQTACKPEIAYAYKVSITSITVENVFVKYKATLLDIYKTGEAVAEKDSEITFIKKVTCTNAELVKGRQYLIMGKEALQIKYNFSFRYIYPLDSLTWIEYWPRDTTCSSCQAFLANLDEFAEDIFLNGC

[6] = Equilibrium solubility in pH 6.8 potassium phosphate buffer incubated for 16 hrs by shake flask method; assay type: physicochemical
Rattus norvegicus [7] = assay: Neuroprotective activity in Wistar rat model of streptozotocin-induced diabetic retinopathy assessed as decrease in retinal ganglion cells at 5 mg/kg, po dosed until 2 months starting 7 days prior to streptozotocin injection (reference value: 44%); assay type: functional; parameters: scale not given: the % may be the effect or the level left; conditions: 1460 h
Rattus norvegicus [8] = assay: Neuroprotective activity in Wistar rat model of streptozotocin-induced diabetic retinopathy assessed as decrease in retinal ganglion cells at 1 mg/kg, po dosed until 2 months starting 7 days prior to streptozotocin injection (reference value: 44%); assay type: functional; parameters: scale not given: the % may be the effect or the level left; conditions: 1460 h
[9] = Inhibition of N-terminal His-tagged human KLK7 (37 to 253 residues) Y180R mutant expressed in Escherichia coli BL21(DE3) using Ac-Glu-Phe-Lys-Pro-Ile-Leu-Trp-Arg-Leu-Gly-Cys(PT14)-Glu-NH2 as substrate preincubated for 1 hr followed by substrate addition by fluorescence-lifetime assay
[10] = target: T2, Nitric oxide synthase, inducible (Mus musculus, UniProt P29477); assay: Inhibition of LPS/IFN-gamma induced NO-dependent iNOS activity in mouse RAW 264.7 cells incubated for 16 hrs by Griess reagent based assay; assay type: cell-based, RAW264.7
T2 sequence (P29477 whole entry): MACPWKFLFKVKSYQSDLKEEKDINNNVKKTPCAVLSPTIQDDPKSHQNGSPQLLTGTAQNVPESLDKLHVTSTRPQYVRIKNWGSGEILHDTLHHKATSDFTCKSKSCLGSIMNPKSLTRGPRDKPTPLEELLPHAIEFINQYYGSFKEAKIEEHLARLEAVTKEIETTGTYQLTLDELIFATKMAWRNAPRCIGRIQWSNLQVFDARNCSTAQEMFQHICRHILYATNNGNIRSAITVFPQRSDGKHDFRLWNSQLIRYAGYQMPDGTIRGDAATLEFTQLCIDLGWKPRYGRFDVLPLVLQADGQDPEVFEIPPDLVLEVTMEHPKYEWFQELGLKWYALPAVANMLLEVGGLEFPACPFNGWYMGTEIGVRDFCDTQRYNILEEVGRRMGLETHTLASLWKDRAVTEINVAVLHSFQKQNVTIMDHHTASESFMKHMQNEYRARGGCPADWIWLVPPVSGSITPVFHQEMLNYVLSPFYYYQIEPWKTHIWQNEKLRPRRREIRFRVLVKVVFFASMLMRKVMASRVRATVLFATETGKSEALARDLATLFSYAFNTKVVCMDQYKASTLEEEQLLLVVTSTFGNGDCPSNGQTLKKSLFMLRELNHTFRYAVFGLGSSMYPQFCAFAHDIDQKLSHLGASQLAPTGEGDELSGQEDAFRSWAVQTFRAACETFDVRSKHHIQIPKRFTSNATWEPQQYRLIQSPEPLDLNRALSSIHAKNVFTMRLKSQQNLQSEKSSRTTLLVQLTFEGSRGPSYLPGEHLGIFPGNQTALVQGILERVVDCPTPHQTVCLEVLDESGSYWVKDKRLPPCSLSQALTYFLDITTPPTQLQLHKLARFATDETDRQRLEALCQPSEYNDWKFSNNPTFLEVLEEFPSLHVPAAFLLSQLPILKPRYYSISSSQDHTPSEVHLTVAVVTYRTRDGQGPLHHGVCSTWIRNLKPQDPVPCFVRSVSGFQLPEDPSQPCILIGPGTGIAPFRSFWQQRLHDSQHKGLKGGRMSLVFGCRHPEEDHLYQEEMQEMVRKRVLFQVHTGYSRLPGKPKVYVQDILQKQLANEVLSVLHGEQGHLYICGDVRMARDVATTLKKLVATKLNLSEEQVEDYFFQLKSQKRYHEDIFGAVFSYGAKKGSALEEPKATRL

[11] = Half life in human cornea by HPLC analysis; assay type: ADME, tissue-based
[12] = Half life in cynomolgus monkey cornea by HPLC analysis; assay type: ADME, tissue-based, Macaca fascicularis; conditions: in vivo
[13] = Half life in Beagle dog cornea by HPLC analysis; assay type: ADME, tissue-based, Canis lupus familiaris; conditions: in vivo
[14] = Half life in pig cornea by HPLC analysis; assay type: ADME, tissue-based, Sus scrofa; conditions: in vivo
[15] = Half life in Dutch Belted rabbit cornea by HPLC analysis; assay type: ADME, tissue-based, Oryctolagus cuniculus; conditions: in vivo
[16] = Reduction of intraocular pressure in human at 0.024%, OU administered once daily and measured at 4 weeks by tonometry; assay type: functional
[17] = Reduction of intraocular pressure in human at 0.024% administered topically to eye once daily and measured after 28 day during phase2 clinical trial by tonometry; assay type: functional
[18] = Reduction of intraocular pressure in human at 0.024%, OU administered once daily for 14 days and measured for 24 hrs on day 14 by tonometry; assay type: functional; conditions: time 14 day
[19] = Reduction of intraocular pressure in human at 0.024%, OU administered once daily and measured at 8 am time point after 2 weeks by tonometry; assay type: functional
[20] = Reduction of intraocular pressure in human at 0.024%, OU administered once daily and measured at 4 pm time point after 2 weeks by tonometry; assay type: functional
[21] = Reduction of intraocular pressure in human at 0.024%, OU administered once daily and measured at 8 am time point after 3 months by tonometry; assay type: functional; conditions: 2190 h
[22] = Reduction of intraocular pressure in human at 0.024%, OU administered once daily and measured at 8 am time point after 6 weeks by tonometry; assay type: functional
[23] = Reduction of intraocular pressure in human at 0.024%, OU administered once daily and measured at 12 pm time point after 3 months by tonometry; assay type: functional; conditions: 2190 h
[24] = Reduction of intraocular pressure in human at 0.024%, OU administered once daily and measured at 1 year by tonometry; assay type: functional; conditions: 8760 h
[25] = Reduction of intraocular pressure in human at 0.024%, OU administered once daily and measured at 12 pm time point after 2 weeks by tonometry; assay type: functional
[26] = Reduction of intraocular pressure in human at 0.024% administered topically to eye once daily and measured after 14 day during phase2 clinical trial by tonometry; assay type: functional
[27] = Reduction of intraocular pressure in human at 0.024% administered topically to eye once daily and measured after 7 day during phase2 clinical trial by tonometry; assay type: functional
[28] = Reduction of intraocular pressure in human at 0.024%, OU administered once daily and measured at 12 pm time point after 6 weeks by tonometry; assay type: functional
[29] = Reduction of intraocular pressure in human at 0.024% administered topically to eye once daily for 4 weeks and measured for 8 hrs during diurnal/wake period by tonometry; assay type: functional
[30] = Reduction of intraocular pressure in human at 0.024% administered topically to eye once daily for 4 weeks and measured for 8 hrs during nocturnal/sleep period by tonometry; assay type: functional
[31] = Reduction of intraocular pressure in human at 0.024%, OU administered once daily and measured at 4 pm time point after 3 months by tonometry; assay type: functional; conditions: 2190 h
[32] = Reduction of intraocular pressure in human at 0.024%, OU administered to fellow-eye once daily for 14 days and measured for 24 hrs on day 14 by tonometry; assay type: functional; conditions: time 14 day
[33] = Reduction of intraocular pressure in human at 0.024%, OU administered once daily and measured at 4 pm time point after 6 weeks by tonometry; assay type: functional
[34] = Reduction of intraocular pressure in human at 0.4%, OU administered twice daily for 52 weeks and measured every 2 weeks for first month and then every 4 weeks at 2 hr post-instillation by tonometry; assay type: functional
[35] = Reduction of intraocular pressure in human at 0.4%, OU administered twice daily for 8 weeks cotreated with timolol and measured every 2 weeks by tonometry; assay type: functional
[36] = Reduction of intraocular pressure in human at 0.2%, OU administered twice daily for 8 weeks and measured every 4 weeks at 8 hrs post instillation during phase 2 clinical trial by tonometry; assay type: functional
[37] = Reduction of intraocular pressure in human at 0.1%, OU administered twice daily for 8 weeks and measured every 4 weeks at 8 hrs post instillation during phase 2 clinical trial by tonometry; assay type: functional
[38] = Reduction of intraocular pressure in human at 0.4%, OU administered twice daily for 8 weeks cotreated-with-latanoprost and measured every 2 weeks at 2 hrs post-instillation by tonometry; assay type: functional
[39] = Reduction of intraocular pressure in human at 0.4%, OU administered twice daily for 8 weeks and measured every 4 weeks at 8 hrs post instillation during phase 2 clinical trial by tonometry; assay type: functional
[40] = Reduction of intraocular pressure in human at 0.4%, OU administered twice daily for 52 weeks and measured every 2 weeks for first month and then every 4 weeks by tonometry; assay type: functional
[41] = Reduction of intraocular pressure in human at 0.4%, OU administered twice daily for 8 weeks cotreated with timolol and measured every 2 weeks at 2 hrs post-instillation by tonometry; assay type: functional
Complement factor D [42] = target: T1, Complement factor D; assay: Inhibition of recombinant human CFD catalytic domain (G24 to A253 residues) expressed in Escherichia coli (Rosetta) using Z-Lys-thiobenzyl and 2,4-dinitrobenzenesulfonyl-2,7-[…]-fluorecein as substrate preincubated for 1 hr followed by substrate addition by spectrofluorimetric method

C[C@H](NC(=O)[C@@H]1C[C@H]2C[C@H]2N1C(=O)Cn1nc(C(N)=O)c2cccnc21)c1cccc(Cl)c1F
IC50 (Complement factor D [1]): 70 nM | IC50 (Complement factor D [2]): 140 nM

CC(N)c1ccc(C(=O)Nc2ccnc3[nH]ccc23)cc1 (configuration not stated)
Activity [3]: 3 mmHg

NC(=O)c1cc2cc(OCc3ccccc3)ccc2[nH]1
Kd (Complement factor D [4]): > 30000 nM | solubility [5]: 30 µM (≈ 7.99 µg/mL)

COc1ccc(NC(=O)N[C@@H](C)c2ccccc2OC)cc1OCCCC(C)C
IC50 (Complement C5): ≤ 5 nM | solubility thermodynamic at 16 h [6]: ≤ 4 µM

OCCc1ccc(O)c(O)c1 [HYDROXYTYROSOL]
Activity (Rattus norvegicus [7]): 9% | Activity (Rattus norvegicus [8]): 34%

NC(=O)c1nn(CC(=O)N2[C@@H]3C[C@@H]3C[C@H]2C(=O)Nc2cccc(Br)n2)c2ncccc12
IC50 (Complement factor D [2]): 50 nM

COC(=O)c1ccccc1CNC(=O)N1CCC[C@H]1C(=O)Nc1cccc(OC(F)(F)F)c1
IC50 [9]: 9000 nM

CCCCCCOc1cc(NC(=O)N[C@@H](C)c2ccccc2)ccc1OC
IC50 (Complement C5): 210 nM | solubility thermodynamic at 16 h [6]: < 4 µM

O=C(CCC/C=C\C[C@@H]1[C@@H](CC[C@@H](O)CCc2ccccc2)[C@H](O)C[C@@H]1O)OC(CO[N+](=O)[O-])CO[N+](=O)[O-]
IC50 [10]: 55000 nM

Cc1ccc(C(=O)OCc2ccc([C@@H](CN)C(=O)Nc3ccc4cnccc4c3)cc2)c(C)c1
t1/2 [11]: 2.92 h | t1/2 [12]: 1.82 h | t1/2 [13]: 1.63 h | t1/2 [14]: 2.6 h | t1/2 [15]: 2.33 h

O=C(CCC/C=C\C[C@@H]1[C@@H](CC[C@H](O)CCc2ccccc2)[C@H](O)C[C@@H]1O)OCCCCO[N+](=O)[O-]
Activity [16]: 4.3 mmHg | Activity [17]: 9 mmHg | Activity [18]: 3.6 mmHg | Activity [19]: 0.4 mmHg | Activity [20]: 0.7 mmHg | Activity [21]: 0.9 mmHg | Activity [22]: 0.9 mmHg | Activity [23]: 1.3 mmHg | Activity [24]: 5.3 mmHg | Activity [25]: 0.8 mmHg | Activity [26]: 8.9 mmHg | Activity [27]: 8.3 mmHg | Activity [28]: 0.8 mmHg | Activity [29]: 1.1 mmHg | Activity [30]: 2.3 mmHg | Activity [31]: 1.3 mmHg | Activity [32]: 3.5 mmHg | Activity [33]: 1 mmHg

COc1cc(C(=O)O)c(NC(=O)N[C@@H](C)c2ccccc2)cc1OCCCC(C)C
IC50 (Complement C5): 620 nM | solubility thermodynamic at 16 h [6]: 728 µM (≈ 302 µg/mL)

C[C@H]1CNCCCN1S(=O)(=O)c1cccc2cncc(F)c12
Activity [34]: -3.7 mmHg | Activity [35]: 0.9 mmHg | Activity [36]: -2.7 mmHg | Activity [37]: -3.2 mmHg | Activity [38]: 1.4 mmHg | Activity [39]: -3.1 mmHg | Activity [40]: -2.6 mmHg | Activity [41]: 1.6 mmHg

COc1ccc(CCNC(=O)[C@@H]2CCCN2C(=O)NCc2cccc3ccccc23)cc1
IC50 (Complement factor D [42]): > 30000 nM | IC50 [9]: 700 nM

COc1ccc(NC(=O)N[C@@H](C)c2ccccc2)cc1OCCCC(C)C
IC50 (Complement C5): 440 nM | solubility thermodynamic at 16 h [6]: < 4 µM

NC(=O)c1cc2cc(OCc3cccc(C(=O)O)c3)ccc2[nH]1
solubility [5]: 2000 µM (≈ 621 µg/mL)
